The NIST ThermoML archive (doi:10.1021/je800416y)

Tests used:
[1] = xn = mol fraction of the nth substance listed; details: 101 kPa, Liquid
[2] = wn = mass fraction of the nth substance listed; details: 101 kPa, Liquid

CN(CCO)CCO [N-methyldiethanolamine] + O
mass density [kg/m3]
Details | 298.15 K | 303.15 K | 308.15 K | 313.15 K | 318.15 K | 323.15 K | 328.15 K | 333.15 K | 338.15 K
[1], x1 = 0.0128 | – | – | – | – | – | – | 991.808 | 989.191 | 986.433
[1], x1 = 0.0212 | – | – | – | – | – | 998.073 | 995.518 | 992.82 | 989.984
[1], x1 = 0.0498 | – | – | – | – | – | 1007.87 | 1005.02 | 1002.04 | 998.939
[1], x1 = 0.0645 | – | – | – | – | – | 1013.06 | 1010.03 | 1006.73 | 1003.61
[1], x1 = 0.0799 | – | – | – | – | – | 1016.68 | 1013.51 | 1010.24 | 1006.85
[1], x1 = 0.1332 | – | – | – | – | – | 1026.23 | 1022.67 | 1019.02 | 1015.29
[1], x1 = 0.1557 | – | – | – | – | – | 1028.34 | 1024.69 | 1020.96 | 1017.15
[1], x1 = 0.1944 | – | – | – | – | – | 1031.78 | 1027.97 | 1024.08 | 1020.13
[1], x1 = 0.2407 | – | – | – | – | – | 1033.11 | 1029.25 | 1025.29 | 1021.29
[1], x1 = 0.2725 | – | – | – | – | – | 1033.74 | 1029.77 | 1025.95 | 1021.9
[1], x1 = 0.366 | – | – | – | – | – | 1033.24 | 1029.24 | 1025.2 | 1021.1
[1], x1 = 0.4302 | – | – | – | – | – | 1031.66 | 1027.68 | 1023.66 | 1019.6
[1], x1 = 0.5642 | – | – | – | – | – | 1027.75 | 1023.83 | 1019.88 | 1015.88
[1], x1 = 0.6687 | – | – | – | – | – | 1022.4 | 1018.52 | 1014.62 | 1010.7
[1], x1 = 0.7531 | – | – | – | – | – | 1020.86 | 1016.84 | 1012.83 | 1008.96
[2], w1 = 0.3228 | 1027.27 | 1024.82 | 1022.16 | 1019.44 | 1016.54 | 1013.63 | 1010.47 | 1007.39 | 1003.91
[2], w1 = 0.488 | 1041.37 | 1038.16 | 1034.94 | 1031.74 | 1028.35 | 1024.83 | 1021.38 | 1017.75 | 1014.17
